Reference: patent publication US10307357B2, “Prebiotic oral care compositions containing an alkyl glycoside” (COLGATE-PALMOLIVE COMPANY, priority 2013, dated 2019)

What was measured:
Format in all cases: cell-based
[1] = tested on: Aggregatibacter actinomycetemcomitans; experiment: Twenty-four hour optical density growth in BHI; settings: over 24 hours, control = 1
Procedure: (§1) The extent of growth of the tested bacteria in response to selected glycosides (β-methyl-D-galactoside and α-methyl-D-galactoside) was investigated by setting up growth curves in a nutritionally rich medium (brain heart infusion broth (BHI), Oxoid), over 24 hours. Late exponential growth phase liquid cultures were prepared by transferring the respective bacterium from blood agar plates to BHI and overnight incubation at 37° C. in an anaerobic atmosphere for A. viscosus, V. parvula, F. nucleatum, P. gingivalis, P. intermedia, T. forsythia, A. naeslundii, and C. sputigena, and in a 5% CO2 environment for S. salivarius, S. sanguinis, S. mitis, A. actinomycetemcomitans, S. mutans, S. sobrinus and S. gordonii. Overnight cultures were transferred to BHI and adjusted to a concentration of 1×10^7 CFU/ml (colony forming units per ml) by measuring the optical density at 600 nm (OD600) (BioRad SmartSpec 3000). For each strain, 200 μl of the bacterial suspension was added to a 96-well plate containing 20 μl of the respective glycosides. Final concentrations of the glycosides were set to 5, 10, 20 and 25 μmol/ml. […] Plates were incubated as previously described. For each combination of bacterium/glycoside, and for each of their respective controls (i.e. the particular bacterium in the nutritionally rich medium with no glycoside), the optical density was measured at 630 nm (OD630) at 0 h and 24 h (Thermo Scientific Multiskan Ascent). Additionally, the OD630 for combinations of bacterium/glycosides grown in a 5% CO2 environment were also measured every hour between 0 h and 9 h. […] The experiment was carried out on three different days (thus providing 3 biological replicas) and on each day the experiment was carried out in quadruple (thus providing 4 technical replicas) for each combination of bacterium with glycoside and for each control. For each day and for each combination, the average (mean) of the values obtained (as detailed above) for the four technical replicas was calculated to provide a single value for each combination on each day. The values shown in Tables 5 to 6, below, are the average (mean) of the three single values obtained for each combination of bacterium with glycoside (α-Methyl-D-Galactoside=α-MDG; β-Methyl-D-Galactoside=β-MDG).

Veillonella parvula = experiment: Twenty-four hour optical density growth in BHI; settings: over 24 hours, control = 1
Procedure: as §1

Streptococcus salivarius [2] = experiment: Twenty-four hour optical density growth in BHI; settings: over 24 hours, control = 1
Procedure: as §1

Tannerella forsythia [3] = experiment: Twenty-four hour optical density growth in BHI; settings: over 24 hours, control = 1
Procedure: as §1

Streptococcus mutans = experiment: Twenty-four hour optical density growth in BHI; settings: over 24 hours, control = 1
Procedure: as §1

Streptococcus mitis = experiment: Twenty-four hour biofilm growth (crystal violet); settings: 24 hours, control = 1
Procedure: (§2) The increase in biofilm formation of the tested bacteria in response to selected glycosides (β-methyl-D-galactoside and α-methyl-D-galactoside) was investigated by setting up biofilm growth assays in a nutritionally rich medium (brain heart infusion broth (BHI), Oxoid), over 24 hours. Late exponential growth phase liquid cultures were prepared by transferring the respective bacterium from blood agar plates to BHI and overnight incubation at 37° C. in an anaerobic atmosphere for A. viscosus, V. parvula, P. gingivalis, P. intermedia, T. forsythia, A. naeslundii, and C. sputigena, and in a 5% CO2 environment for S. salivarius, S. sanguinis, S. mitis, A. actinomycetemcomitans, S. mutans, and S. gordonii. Overnight cultures were transferred to BHI and adjusted to a concentration of 1×10^7 CFU/ml by measuring the optical density at 600 nm (OD600) (BioRad SmartSpec 3000). For each strain, 200 μl of the bacterial suspension was added to a 96-well plate containing 20 μl of the respective glycosides. Final concentrations of the glycosides were set to 5, 10, 20 and 25 μmol/ml. […] Additionally, for each bacterium tested, a background control, to correct for background staining, was added. This background control contained the bacterium tested and 0.03 weight % chlorhexidine, as an antiseptic. Plates were incubated as previously described. After 24 hrs the supernatant was removed from the wells of the plates. The wells were washed twice with 1×100 μL PBS (phosphate buffered saline), fixed for 20 minutes with 96% vol. ethanol (96% vol. solution in water) and the biofilm retained at the bottom of the wells was stained with 1 weight % crystal violet (1 weight % solution in water). The bound dye was dissolved with 5% vol. acetic acid (5% vol. solution in water). Quantification of the stained biofilm was performed by measuring the absorbance at 630 nm using a Multiskan Ascent microplate reader (Thermo Scientific). […] The experiment was carried out on three different days (thus providing 3 biological replicas) and each day the experiment was carried out in quadruple (thus providing 4 technical replicas) for each combination of bacterium with glycoside and for each control. For each day and for each combination, the average (mean) of the values obtained (as detailed above) for the four technical replicas was calculated to provide a single value for each combination on each day. The values shown in Tables 7 to 8, below, are the average (mean) of the three single values obtained for each combination of bacterium with glycoside.

Streptococcus gordonii = experiment: Twenty-four hour biofilm growth (crystal violet); settings: 24 hours, control = 1
Procedure: as §2

Streptococcus salivarius [4] = experiment: Twenty-four hour biofilm growth (crystal violet); settings: 24 hours, control = 1
Procedure: as §2

Capnocytophaga sputigena = experiment: Twenty-four hour biofilm growth (crystal violet); settings: 24 hours, control = 1
Procedure: as §2

Tannerella forsythia [5] = experiment: Twenty-four hour biofilm growth (crystal violet); settings: 24 hours, control = 1
Procedure: as §2

Actinomyces naeslundii = experiment: Twenty-four hour biofilm growth (crystal violet); settings: 24 hours, control = 1
Procedure: as §2

Porphyromonas gingivalis = experiment: Twenty-four hour biofilm growth (crystal violet); settings: 24 hours, control = 1
Procedure: as §2

## CO[C@@H]1O[C@H](CO)[C@H](O)[C@H](O)[C@H]1O [β-methyl-D-galactoside]
[1]; 5 μmol/ml
  maximal OD630 divided by control (extent of growth): 0.7099
[1]; 10 μmol/ml
  maximal OD630 divided by control (extent of growth): 0.7723
[1]; 20 μmol/ml
  maximal OD630 divided by control (extent of growth): 0.7373
[1]; 25 μmol/ml
  maximal OD630 divided by control (extent of growth): 0.7472
Veillonella parvula; 5 μmol/ml
  maximal OD630 divided by control (extent of growth): 0.8912
Veillonella parvula; 10 μmol/ml
  maximal OD630 divided by control (extent of growth): 0.9129
Veillonella parvula; 20 μmol/ml
  maximal OD630 divided by control (extent of growth): 0.9145
Veillonella parvula; 25 μmol/ml
  maximal OD630 divided by control (extent of growth): 0.9462
Streptococcus salivarius [2]; 5 μmol/ml
  maximal OD630 divided by control (extent of growth): 1.2275
Streptococcus salivarius [2]; 10 μmol/ml
  maximal OD630 divided by control (extent of growth): 1.5208
Streptococcus salivarius [2]; 20 μmol/ml
  maximal OD630 divided by control (extent of growth): 1.7353
Streptococcus salivarius [2]; 25 μmol/ml
  maximal OD630 divided by control (extent of growth): 1.7445
Tannerella forsythia [3]; 5 μmol/ml
  maximal OD630 divided by control (extent of growth): 0.9652
Tannerella forsythia [3]; 10 μmol/ml
  maximal OD630 divided by control (extent of growth): 0.9920
Tannerella forsythia [3]; 20 μmol/ml
  maximal OD630 divided by control (extent of growth): 0.9847
Tannerella forsythia [3]; 25 μmol/ml
  maximal OD630 divided by control (extent of growth): 1.0042
Streptococcus mutans; 5 μmol/ml
  maximal OD630 divided by control (extent of growth): 0.9473
Streptococcus mutans; 10 μmol/ml
  maximal OD630 divided by control (extent of growth): 0.9083
Streptococcus mutans; 20 μmol/ml
  maximal OD630 divided by control (extent of growth): 0.7929
Streptococcus mutans; 25 μmol/ml
  maximal OD630 divided by control (extent of growth): 0.5618
Streptococcus mitis; 5 μmol/ml
  biofilm OD 630 nm divided by control (biofilm growth): 1.3127
Streptococcus mitis; 10 μmol/ml
  biofilm OD 630 nm divided by control (biofilm growth): 1.1242
Streptococcus mitis; 20 μmol/ml
  biofilm OD 630 nm divided by control (biofilm growth): 1.1524
Streptococcus mitis; 25 μmol/ml
  biofilm OD 630 nm divided by control (biofilm growth): 1.1692
Streptococcus gordonii; 5 μmol/ml
  biofilm OD 630 nm divided by control (biofilm growth): 0.7601
Streptococcus gordonii; 10 μmol/ml
  biofilm OD 630 nm divided by control (biofilm growth): 0.6695
Streptococcus gordonii; 20 μmol/ml
  biofilm OD 630 nm divided by control (biofilm growth): 0.6763
Streptococcus gordonii; 25 μmol/ml
  biofilm OD 630 nm divided by control (biofilm growth): 0.6429
Streptococcus salivarius [4]; 5 μmol/ml
  biofilm OD 630 nm divided by control (biofilm growth): 3.1530
Streptococcus salivarius [4]; 10 μmol/ml
  biofilm OD 630 nm divided by control (biofilm growth): 5.6484
Streptococcus salivarius [4]; 20 μmol/ml
  biofilm OD 630 nm divided by control (biofilm growth): 18.9267
Streptococcus salivarius [4]; 25 μmol/ml
  biofilm OD 630 nm divided by control (biofilm growth): 20.1333
Capnocytophaga sputigena; 5 μmol/ml
  biofilm OD 630 nm divided by control (biofilm growth): 0.7253
Capnocytophaga sputigena; 10 μmol/ml
  biofilm OD 630 nm divided by control (biofilm growth): 0.8100
Capnocytophaga sputigena; 20 μmol/ml
  biofilm OD 630 nm divided by control (biofilm growth): 0.8487
Capnocytophaga sputigena; 25 μmol/ml
  biofilm OD 630 nm divided by control (biofilm growth): 0.9428
Tannerella forsythia [5]; 5 μmol/ml
  biofilm OD 630 nm divided by control (biofilm growth): 0.7494
Tannerella forsythia [5]; 10 μmol/ml
  biofilm OD 630 nm divided by control (biofilm growth): 0.6979
Tannerella forsythia [5]; 20 μmol/ml
  biofilm OD 630 nm divided by control (biofilm growth): 0.9049
Tannerella forsythia [5]; 25 μmol/ml
  biofilm OD 630 nm divided by control (biofilm growth): 0.8051
Actinomyces naeslundii; 5 μmol/ml
  biofilm OD 630 nm divided by control (biofilm growth): 0.9907
Actinomyces naeslundii; 10 μmol/ml
  biofilm OD 630 nm divided by control (biofilm growth): 0.9316
Actinomyces naeslundii; 20 μmol/ml
  biofilm OD 630 nm divided by control (biofilm growth): 0.9697
Actinomyces naeslundii; 25 μmol/ml
  biofilm OD 630 nm divided by control (biofilm growth): 0.9727
Porphyromonas gingivalis; 5 μmol/ml
  biofilm OD 630 nm divided by control (biofilm growth): 0.9407
Porphyromonas gingivalis; 10 μmol/ml
  biofilm OD 630 nm divided by control (biofilm growth): 0.9326
Porphyromonas gingivalis; 20 μmol/ml
  biofilm OD 630 nm divided by control (biofilm growth): 0.9049
Porphyromonas gingivalis; 25 μmol/ml
  biofilm OD 630 nm divided by control (biofilm growth): 0.9163
